From patent publication US7772402B2, “Optically detectable organophosphonates” (Austria Wirtschaftsservice Gesellschaft Mit Beschrankter …, priority 2003, dated 2010)

Columns and labels:
[1] = biological target: T1, lipase from Pseudomonas cepacia (PCL) (Burkholderia cepacia, UniProt P22088); test: Inhibition of lipase activity in Triton X-100 micelles, continuous fluorescence method; format: biochemical; details: incubation 4° C., 16 hrs; FIG. 3b
T1 construct: R.D. Schmid, University of Stuttgart (obtained, not a commercial purchase)
T1 sequence (P22088 45-364): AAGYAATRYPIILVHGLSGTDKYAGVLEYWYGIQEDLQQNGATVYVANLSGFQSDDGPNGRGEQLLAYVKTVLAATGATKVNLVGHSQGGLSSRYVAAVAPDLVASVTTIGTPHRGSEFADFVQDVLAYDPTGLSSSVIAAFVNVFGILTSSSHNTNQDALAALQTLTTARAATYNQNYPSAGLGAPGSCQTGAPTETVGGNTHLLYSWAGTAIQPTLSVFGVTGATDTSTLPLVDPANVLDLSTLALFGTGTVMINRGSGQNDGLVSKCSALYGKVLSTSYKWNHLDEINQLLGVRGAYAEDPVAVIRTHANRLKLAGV
Procedure: (§1) Inhibition of lipase activity by the water-insoluble phosphonates was performed in Triton X-100 micelles (2 mM final concentration) and measured by a continuous fluorescence method according to Duque et al, (J. Lipid Res. 37, 868-876 (1996)) using 3-O-hexadecyl-2-pyrenedecanoyl-1-trinitrophenylaminododecanoyl-sn-glycerol as a substrate. Lipase activity was determined at 30° C. from the dequenching of pyrene fluorescence at 378 nm (excitation at 342 nm, slit widths 5.0 nm each) (the initial linear increase in fluorescence intensity after addition of the lipase was used to measure enzyme activity). The measurements were performed in ethanol-water (1:3 by vol.) as a solvent.
(§2) Triton X-100 specially purified for membrane research (Hofmann La Roche) (10 μL of a 100 mM stock solution in chloroform) and the appropriate volume of a phosphonate solution in chloroform were mixed and the solvent was removed under a stream of nitrogen. The residue was dispersed in an 100 μM Tris-HCl puffer (pH 7.40 at 37° C.) by vigorous vortexing followed by addition of an aliquot of a lipase solution, giving a total volume of 500 μL. Incubations were performed at 4° C. The percentage of inhibition after 16 hrs in the reaction mixture was determined by measuring the residual lipase activity of appropriate aliquots (3 μL) as indicated above. Controls were run in parallel under identical conditions but in the absence of inhibitors.
(§3) The novel compounds were tested with respect to their ability to inhibit three selected microbial lipases with different substrate preferences. The lipase from Rhizopus oryzae was efficiently inactivated by the perylene- and NBD-inhibitors (FIG. 3a) at 4° C. for 16 hrs in 100 μM Tris-HCl puffer at inhibitor and lipase concentrations of 1.0 mM and 0.1 mM, respectively. […] This is in line with the assumption that lipases prefer long-chain glycerol esters as substrates, and evidently inhibitors as well. […] In contrast, the Pseudomonas species lipase was quantitatively inactivated by all synthesized organophosphonates (FIG. 3c).

[2] = biological target: T2, lipase from Rhizopus oryzae (ROL) (Rhizopus oryzae, UniProt P61872); test: as above; format: biochemical; details: 4° C. for 16 hrs, 100 μM Tris-HCl puffer, inhibitor 1.0 mM, lipase 0.1 mM; FIG. 3a
T2 construct: F. Spener and L. Haalck, University of Münster (gift)
T2 sequence (P61872 96-392): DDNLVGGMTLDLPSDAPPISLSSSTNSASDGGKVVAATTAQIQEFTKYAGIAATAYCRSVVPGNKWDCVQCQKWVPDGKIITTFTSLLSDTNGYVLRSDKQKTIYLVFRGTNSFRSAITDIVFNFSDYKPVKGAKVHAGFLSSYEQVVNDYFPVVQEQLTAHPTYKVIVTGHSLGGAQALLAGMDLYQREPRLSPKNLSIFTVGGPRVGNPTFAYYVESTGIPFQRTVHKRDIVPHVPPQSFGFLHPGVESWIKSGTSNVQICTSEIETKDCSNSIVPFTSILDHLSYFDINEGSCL
Procedure: as §1, §2, §3

Row | Compound | inhibition of lipase from Pseudomonas cepacia [1] | inhibition (inactivation) of lipase from Rhizopus oryzae [2]
1 | CCCCCCCCOCC(COP(=O)(CCCCCC)Oc1ccc([N+](=O)[O-])cc1)NC(=O)CCCc1ccc2c3cccc4cccc(c5cccc1c52)c43 (stereo not drawn) [XXII, 2-(4-(3-Perylenyl)butanoyl)amino-2-deoxy-3-O-octyl-sn-glycero-1-O-hexylphosphonate p-nitrophenyl ester] | much more potent inhibitor | –
2 | CCCCCCCCCCCCCCCCOCC(COP(=O)(CCCCCC)Oc1ccc([N+](=O)[O-])cc1)NC(=O)CCCCCCCc1ccc2c3cccc4cccc(c5cccc1c52)c43 (stereo not drawn) [XXIII, 2-(8-(3-Perylenyl)octanoyl)amino-2-deoxy-3-O-hexadecyl-sn-glycero-1-O-hexylphosphonate p-nitrophenyl ester] | – | somewhat more active
3 | CCCCCCCCCCCCCCCCOCC(COP(=O)(CCCCCC)Oc1ccc([N+](=O)[O-])cc1)NC(=O)CCCCCCCCCCCNc1ccc([N+](=O)[O-])c2nonc12 (stereo not drawn) [XXV, 2-(NBD-dodecanoyl)amino-2-deoxy-3-O-hexadecyl-sn-glycero-1-O-hexylphosphonate p-nitrophenyl ester] | – | slightly more effective
